Test results as given in patent US20250295681A1, “CANDIDA ANTIFUNGAL COMPOSITION COMPRISING LIPOTEICHOIC ACID” (SEOUL NATIONAL UNIVERSITY R&DB FOUNDATION, priority 2022, published 2025).

Test system: C. albicans SC5314
Experiment: Surface adhesion of C. albicans with simultaneous LreLTA and Hsp70 inhibitor VER-155008, crystal violet staining
Assay type: cell-based, Candida albicans
Settings: SC5314 1×10^4 CFU/mL; LreLTA 30 μg/mL plus VER-155008 1, 10, 50 and 100 μM simultaneously; 24 hours; FIG. 4
Method: According to previous research, Hsp70 is known to play a role in controlling overall virulence factors and drug resistance in C. albicans, and thus, the inventors of the present disclosure conducted experiments by utilizing VER-155008, which is an Hsp70 inhibitor.
In order to determine the effect of VER-155008 on reducing C. albicans surface adhesion by LreLTA, C. albicans SC5314 strain was cultured in YPD medium and prepared at 1×10^4 CFU/mL, and LreLTA at a single concentration of 30 μg/mL and VER-155008 at concentrations of 1, 10, 50 and 100 μM were simultaneously treated. After culturing for 24 hours, the degree of adhesion maintenance to the surface was compared by 0.1% crystal violet staining.

N#Cc1ccc(COC[C@H]2O[C@@H](n3c(NCc4ccc(Cl)c(Cl)c4)nc4c(N)ncnc43)[C@H](O)[C@@H]2O)cc1 [VER-155008]
effect on the surface adhesion reducing efficacy of LreLTA: the efficacy of reducing the surface adhesion of LreLTA was decreased
